The record followed here is paper PMC11808397, “Development of selective nanomolar cyclic peptide ligands as GBA1 enzyme stabilisers” (RSC Chemical Biology, 2025).

Positions of bridges follow the written chain, without caps; N, C: chain ends. Non-standard residues stand in square brackets, D forms with d. Residues, ends and D or L forms follow the SMILES beside them.

Assay [1] deals with T1, recombinant human GBA1 (rhGBA1, Cerezyme) (Homo sapiens, UniProt P04062, R534H).
T1 construct: purchased Cerezyme
T1 sequence (P04062 40-536 R534H): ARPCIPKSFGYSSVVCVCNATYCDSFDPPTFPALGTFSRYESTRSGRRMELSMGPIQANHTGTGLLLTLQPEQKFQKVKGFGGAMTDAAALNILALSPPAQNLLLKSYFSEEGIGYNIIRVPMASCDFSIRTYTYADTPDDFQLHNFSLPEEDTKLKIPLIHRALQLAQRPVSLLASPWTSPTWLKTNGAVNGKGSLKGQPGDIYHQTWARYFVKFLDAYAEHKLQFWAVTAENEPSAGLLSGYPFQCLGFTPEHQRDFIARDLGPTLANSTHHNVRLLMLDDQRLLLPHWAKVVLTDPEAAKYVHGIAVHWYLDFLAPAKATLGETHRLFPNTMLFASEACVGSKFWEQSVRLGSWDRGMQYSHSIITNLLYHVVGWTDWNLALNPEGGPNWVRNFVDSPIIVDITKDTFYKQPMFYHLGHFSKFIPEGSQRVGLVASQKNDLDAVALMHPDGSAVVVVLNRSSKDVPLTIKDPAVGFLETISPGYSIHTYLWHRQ
The experiment in a line: rhGBA1 Ki / kinetic studies with varied 4-MU substrate. Conditions: 4MU substrate 0.05-5 mM, no pre-incubation, mean ± SD from 3 technical triplicates. The class given is biochemical. The procedure: Based on the pull-down validation, a set of eight cyclic peptides (L1, L2, L4, L6, D1, D8, D12 and D13) were identified, synthesized, and evaluated for their inhibitory potency against recombinant human GBA1 (rhGBA1, Cerezyme®) and their selectivity over human β-glucosidases GBA2 and GBA3. Half-maximum inhibitory concentration (IC50) values for β-glucosidases were determined in vitro by measuring hydrolysis of 4-methylumbelliferyl-β-D-glucopyranoside (4-MU-β-D-Glu) fluorogenic substrate.
Selective Cyclic Peptide Ligands as GBA1 Stabilizers Katzy et al.
Figure S4. Inhibitory constant (Ki) values using increasing concentrations of 4-MU-beta-glucoside as fluorogenic substrate. Enzyme activity (nmol h-1 mg-1) versus MU substrate concentrations is plotted (See Table 1 for Ki values) for inhibitors L2, L4, L6, D1, D8, and D12, and corresponding Lineweaver Burk plots are shown on the right.
(1 picture or pasted object on this page, not shown here)
GBA1 Ki values were determined using the same incubation times and buffers as described above following a previously described protocol.6 4MU-β-D-glucopyranoside concentration was varied […]
between 0.05 mM and 5 mM. […]
2.8. Thermostability assays in rhGBA (Cerezyme)
Varying concentrations of peptides were incubated with 1 µM rhGBA1 in 20 mM HEPES pH 7.0 with 100 mM NaCl, with a final DMSO concentration of 0.5 %, for 2 hours at room temperature. Melting

Assay [2] concerns the target T1, recombinant human GBA1 (rhGBA1, Cerezyme). The experiment in a line: In vitro rhGBA1 inhibition, 4-MU-β-D-glucopyranoside hydrolysis. The class given is biochemical. The note with it: Cerezyme 14 nM, 3.7 mM 4-MU-β-D-glucopyranoside, McIlvaine pH 5.2, 30 min pre-incubation 37 °C + 30 min, mean ± SD from 3 technical triplicates; for IC50: SD. As for the experimental part:
Based on the pull-down validation, a set of eight cyclic peptides (L1, L2, L4, L6, D1, D8, D12 and D13) were identified, synthesized, and evaluated for their inhibitory potency against recombinant human GBA1 (rhGBA1, Cerezyme®) and their selectivity over human β-glucosidases GBA2 and GBA3. Half-maximum inhibitory concentration (IC50) values for β-glucosidases were determined in vitro by measuring hydrolysis of 4-methylumbelliferyl-β-D-glucopyranoside (4-MU-β-D-Glu) fluorogenic substrate. […]
Pure product fractions were pooled, lyophilized, and dissolved again in DMSO before concentration was determined by A280 using a sample diluted in phosphate buffer at pH 7.4 and extinction coefficients determined from the sequence using the Expasy ProtParam online tool (https://web.expasy.org/protparam/). […]
2.5. In vitro IC50 and Ki measurements
For GBA1, IC50 values were determined using the recombinant human GBA1 (rhGBA1, Cerezyme) following described procedures.4 Enzyme activity was measured using 3.7 mM 4-methylumbeliferone (4MU)-β-D-glucopyranoside in 150 mM McIlvaine buffer pH 5.2 supplemented with 0.1% bovine serum albumin (BSA) (w/v), 0.1% Triton X-100 (v/v), and 0.2% sodium taurocholate (w/v). Varying concentrations of inhibitor (12.5 µL) were incubated with 12.5 µL of enzyme (final concentration 14 nM) at 37 °C for 30 min. Following this, 100 µL of 4MU substrate was added and the samples were again incubated at 37 °C for 30 min. The reaction was quenched using excess 1 M NaOH-glycine (200 µL, pH 10.3) and 4MU fluorescence was measured using a LS55 fluorimeter (λEx 366 nm and λEm 445 […]
30 min at 37 °C (12.5 µL) and subsequently incubated with the tested ligands at a range of concentrations for 30 min at 37 °C (12.5 µL), after which 100 µL 4MU-β-D-glucopyranoside was added for a final incubation of 30 min at 37 °C, quenched with 200 µL 1 M NaOH-glycine (pH 10.3) and fluorescence was measured. IC50 values were calculated using GraphPad Prism version 8.

With `CC(C)C[C@H](NC(=O)[C@@H](NC(=O)[C@H](CCCNC(=N)N)NC(=O)[C@@H]1CSCC(=O)N[C@H](Cc2ccc(O)cc2)C(=O)N[C@@H]([C@@H](C)O)C(=O)N2CCC[C@H]2C(=O)NCC(=O)N[C@@H](Cc2ccc(O)cc2)C(=O)N[C@@H](C(C)C)C(=O)N[C@@H](Cc2ccc(O)cc2)C(=O)N1)C(C)C)C(=O)N[C@@H](CCCCN)C(=O)N[C@@H](Cc1ccc(O)cc1)C(=O)N[C@@H](CS)C(N)=O` [D8] ({CH2CO}-[dY]TPGYVYCRVLKYC-NH2; thioether N-8), the Ki in assay [1] stood at 13 ± 4 nM. Besides, the IC50 in assay [2] stood at 12 ± 11 nM.

Take `CC[C@H](C)[C@@H]1NC(=O)[C@H](CO)NC(=O)[C@H](CS)NC(=O)CNC(=O)CNC(=O)[C@H](CC(C)C)NC(=O)[C@H](Cc2ccc(O)cc2)NC(=O)[C@H](C(C)C)NC(=O)[C@H](CC(C)C)NC(=O)[C@H](CCCNC(=N)N)NC(=O)[C@@H]2CCCN2C(=O)[C@H](Cc2ccc(O)cc2)NC(=O)CSC[C@@H](C(N)=O)NC(=O)[C@H](CCC(=O)O)NC(=O)[C@H](CC(C)C)NC(=O)[C@H](CC(C)C)NC1=O` [L1] ({CH2CO}-YPRLVYLGGCSILLEC-NH2; thioether N-16): in assay [2], the “rhGBA1 IC50” value was “high micromolar range” and the half-inhibitory concentration (IC50) was 138000 ± 55800 nM.

Consider `CC[C@H](C)[C@H](NC(=O)[C@H](CCCNC(=N)N)NC(=O)[C@@H]1CSCC(=O)N[C@@H](Cc2ccc(O)cc2)C(=O)N[C@@H](C)C(=O)N[C@@H](Cc2ccc(O)cc2)C(=O)N[C@@H](Cc2c[nH]c3ccccc23)C(=O)N[C@@H](Cc2c[nH]c3ccccc23)C(=O)N[C@@H](CC(C)C)C(=O)N1)C(=O)N1CCC[C@H]1C(=O)N[C@@H](Cc1c[nH]c2ccccc12)C(=O)N[C@@H](CC(C)C)C(=O)N[C@@H](CO)C(=O)N[C@H](C(N)=O)C(C)C` [L2] ({CH2CO}-YAYWWLCRIPWLSV-NH2; thioether N-7), for which the Ki in assay [1] amounted to 42 ± 7 nM. Besides, the IC50 in assay [2] worked out at 340 ± 160 nM.

Take `CC[C@H](C)[C@@H]1NC(=O)[C@H](Cc2ccc(O)cc2)NC(=O)CSC[C@@H](C(N)=O)NC(=O)[C@H](Cc2c[nH]c3ccccc23)NC(=O)[C@H](CCC(N)=O)NC(=O)[C@H]([C@@H](C)CC)NC(=O)[C@H]([C@@H](C)CC)NC(=O)[C@@H]2CCCN2C(=O)[C@H](C(C)C)NC(=O)[C@H](Cc2ccc(O)cc2)NC(=O)[C@H](Cc2c[nH]c3ccccc23)NC(=O)[C@H](CO)NC1=O` [L6] ({CH2CO}-YISWYVPIIQWC-NH2; thioether N-12): the Ki in assay [1] was found to be 1340 ± 203 nM. In assay [2], the IC50 is 5660 ± 2040 nM.

`CC(C)C[C@@H]1NC(=O)CNC(=O)[C@H](CC(C)C)NC(=O)[C@@H](Cc2ccc(O)cc2)NC(=O)CSC[C@@H](C(N)=O)NC(=O)[C@H](CO)NC(=O)[C@H](CCCCN)NC(=O)[C@H](CC(C)C)NC(=O)[C@H](Cc2ccccc2)NC(=O)[C@H](CCCNC(=N)N)NC(=O)[C@H](Cc2ccc(O)cc2)NC(=O)[C@H](Cc2c[nH]c3ccccc23)NC1=O` [D12] ({CH2CO}-[dY]LGLWYRFLKSC-NH2; thioether N-12): in assay [1], the Ki amounted to 1 ± 0.4 nM. Besides, in assay [2], the “rhGBA1 IC50” value is reported as “low nanomolar” and the IC50 is 4 ± 4 nM.

Turning to `CC[C@H](C)[C@H](NC(=O)[C@H](CC(C)C)NC(=O)[C@H](Cc1ccc(O)cc1)NC(=O)[C@H](Cc1ccc(O)cc1)NC(=O)[C@@H]1CSCC(=O)N[C@H](Cc2ccc(O)cc2)C(=O)N[C@@H](CCCNC(=N)N)C(=O)N[C@@H](C(C)C)C(=O)N1)C(=O)N[C@H](C(=O)N[C@H](C(=O)N[C@@H](CC(C)C)C(=O)N[C@@H](CC(=O)O)C(=O)N[C@@H](CS)C(N)=O)C(C)C)[C@@H](C)O` [D1] ({CH2CO}-[dY]RVCYYLITVLDC-NH2; thioether N-4), the Ki in assay [1] stood at 0.9 ± 0.1 nM. In assay [2], the “rhGBA1 IC50” value was “low nanomolar” and the half-maximal inhibitory concentration (IC50) worked out at 5 ± 3 nM.

`CC(C)C[C@@H]1NC(=O)CNC(=O)[C@H](Cc2ccccc2)NC(=O)[C@H](CC(C)C)NC(=O)[C@@H]2CCCN2C(=O)[C@H](Cc2ccc(O)cc2)NC(=O)CSC[C@@H](C(=O)N2CCC[C@H]2C(=O)N[C@@H](CC(N)=O)C(=O)N[C@@H](Cc2c[nH]c3ccccc23)C(=O)N[C@@H](Cc2ccccc2)C(=O)N2CCC[C@H]2C(=O)N[C@@H](Cc2ccc(O)cc2)C(=O)N[C@@H](CCC(N)=O)C(=O)N[C@@H](CS)C(N)=O)NC(=O)[C@H](CO)NC(=O)[C@H](Cc2ccccc2)NC1=O` [L4] ({CH2CO}-YPLFGLFSCPNWFPYQC-NH2; thioether N-9): the inhibition constant (Ki) in assay [1] is 2 ± 1 nM. In assay [2], the “rhGBA1 IC50” value is given as “low nanomolar” and the IC50 amounted to 9 ± 4 nM.

What is called Ki is a dissociation constant, usually derived from enzyme kinetics or from competition with a known ligand. As a reminder, the IC50 is the concentration that inhibits the measured activity by half.
